Reference: US8354436B2 (4SC Discovery GmbH, priority 2011, dated 2013)

Columns and labels:
Assay type in all cases: cell-based
IL-17FF = IL-17FF production by PHA-stimulated human PBMC (human IL-17F ELI-Pair); details: PHA-stimulated human PBMC, 48 hours; column B; read-out: IC50 (IL-17FF)
Method: (§1) Analysis of Proliferation of and Cytokine Production by Human PBMC Stimulated with PHA
(§2) Peripheral blood mononuclear cells (PBMC) from healthy human donors were purified using Accuspin™ System-Histopaque-1077 (Sigma) according to the protocol recommended by the manufacturer. Purified PBMC were then washed twice with phosphate-buffered saline (PBS) and resuspended in RPMI1640 culture medium supplemented with 10% dialyzed heat inactivated fetal calf serum, 1.5 mM L-glutamine, 100 U penicillin/ml, and […] (all from PAN Biotech, Aidenbach, Germany). For stimulation, PBMC were seeded at 1×10^5 cells/well, activated with 2 μg/ml phytohaemagglutinin (PHA, Sigma) and incubated with the test compounds for 48 hours. IL-17A, IL-17F and INF-γ were then determined in the culture supernatant using a Luminex BioPlex system, following the manufacturer's instructions (BioRad, Munich, Germany). For screening, compounds were used at 10, 1, 0.1 and 0.01 μM. To determine the IC50, compounds were titrated semilogarithmically.
(§3) Cytokines were determined in the aforementioned culture supernatant using the following methods: IL-17AA/AF was measured using the Luminex BioPlex system (BioRad, Munich, Germany); IL-17AA using the human homodimer IL-17A ELISA Ready Set Go Kit from eBioscience (Frankfurt, Germany); IL-17FF using the human IL-17F ELI-Pair from Hölzel DiagnosticaGmBH (Köln, Germany); and IFN-γ using the OptEIA human IFN-g ELISA from BD Bioscience (Heidelberg, Germany), all following the manufacturer's instructions.

IFN-γ = IFN-γ production by PHA-stimulated human PBMC (OptEIA human IFN-g ELISA); details: PHA-stimulated human PBMC, 48 hours; column C; read-out: IC50 (IFNγ)
Method: as §1, §2, §3

[1] = test system: PBMC from healthy human donors; test: T cell proliferation assay (PHA-stimulated human PBMC, BrdU ELISA); details: PHA-stimulated human PBMC, 48 hours, column D, read-out: IC50 (Tcell proliferation)
Method: Cell proliferation was analysed using the BrdU based cell proliferation ELISA from Roche (Mannheim, Germany) according to the manufacturer's instructions. T Cell Proliferation Assay Peripheral blood mononuclear cells (PBMC) from healthy human donors were isolated by centrifugation over Ficoll-Hypaque (Sigma-Aldrich, Germany) according to manufacturer's instructions. Purified PBMC were washed twice with PBS and resuspended in RPMI1640 culture medium supplemented with 10% dialyzed heat inactivated fetal calf serum, 1.5 mM L-glutamine, 100 U penicillin/ml, and […] (all from PAN Biotech, Aidenbach, Germany). For stimulation, PBMC were seeded at 1×10^5 cells/well, activated with 2 μg/ml phytohaemagglutinin (PHA, Sigma) and incubated with the test compound. After 48 hours proliferation was measured using the BrdU based cell proliferation ELISA from Roche (Mannheim, Germany) according to the manual.

Structure (SMILES) | IC50 (IL-17FF) [nM] | IC50 (IFN-γ) [nM] | IC50 [1] [nM]
COc1cc(OC)c(CNC(=O)c2c(-c3c(F)cccc3Cl)noc2-c2cnn(-c3ccccc3F)c2C(F)(F)F)c(OC)c1 [Example I-2, 3-(2-chloro-6-fluorophenyl)-5-(1-(2-fluorophenyl)-5-(trifluoromethyl)-1H-pyrazol-4-yl)-N-(2,4,6-trimethoxyben-zyl)isoxazole-4-carboxamide] | 1000 to 10000 | 1000 to 10000 | –
CNC(=O)c1c(-c2c(F)cccc2Cl)noc1-c1cnn(-c2ccccc2OC)c1C(F)(F)F [Example I-60, 3-(2-chloro-6-fluorophenyl)-5-(1-(2-methoxyphenyl)-5-(trifluoromethyl)-1H-pyrazol-4-yl)-N-methylisoxazole-4-carboxamide] | 1000 to 10000 | 1000 to 10000 | –
Fc1cccc(Cl)c1-c1noc(-c2cnn(-c3ccc(OC(F)(F)F)cc3)c2C(F)(F)F)c1Br [IB-25, 4-bromo-3-(2-chloro-6-fluorophenyl)-5-(1-(4-(trifluoromethoxy)phenyl)-5-(trifluoromethyl)-1H-pyrazol-4-yl)isoxazole] | 1000 to 10000 | – | –
CN(C)C(=O)c1c(-c2c(F)cccc2Cl)noc1-c1cnn(-c2ccccc2F)c1C(F)(F)F [Example I-20, 3-(2-chloro-6-fluorophenyl)-5-(1-(2-fluorophenyl)-5-(trifluoromethyl)-1H-pyrazol-4-yl)-N,N-dimethylisoxazole-4-carboxamide] | 1000 to 10000 | 1000 to 10000 | –
CNC(=O)c1c(-c2c(F)cccc2Cl)noc1-c1cnn(-c2ccc(OC(F)(F)F)cc2)c1C(F)(F)F [Example I-56, 3-(2-chloro-6-fluorophenyl)-N-methyl-5-(1-(4-(trifluoromethoxy)phenyl)-5-(trifluoromethyl)-1H-pyrazol-4-yl)isoxazole-4-carboxamide] | 1000 to 10000 | – | –
CNC(=O)c1c(-c2c(F)cccc2Cl)noc1-c1cnn(-c2ccccc2Cl)c1C(F)(F)F [IB-50, 3-(2-chloro-6-fluorophenyl)-5-(1-(2-chlorophenyl)-5-(trifluoromethyl)-1H-pyrazol-4-yl)-N-methylisoxazole-4-carboxamide] | 1000 to 10000 | – | –
CCOC(=O)c1c(-c2c(F)cccc2Cl)noc1-c1cnn(Cc2ccncc2)c1C(F)(F)F [IB-85, ethyl 3-(2-chloro-6-fluorophenyl)-5-(1-(pyridin-4-ylmethyl)-5-(trifluoromethyl)-1H-pyrazol-4-yl)isoxazole-4-carboxylate] | 1000 to 10000 | 1000 to 10000 | –
CNC(=O)c1c(-c2cccc(F)c2)noc1-c1cnn(-c2cccc(F)c2)c1C(F)(F)F [Example I-105, 3-(3-fluorophenyl)-5-(1-(3-fluorophenyl)-5-(trifluoromethyl)-1H-pyrazol-4-yl)-N-methylisoxazole-4-carboxamide] | 1000 to 10000 | 1000 to 10000 | –
CNC(=O)c1c(-c2c(F)cccc2Cl)noc1-c1cnn(-c2cccc(NC(C)=O)c2)c1C(F)(F)F [IB-91, 5-(1-(3-acetamidophenyl)-5-(trifluoromethyl)-1H-pyrazol-4-yl)-3-(2-chloro-6-fluorophenyl)-N-methylisoxazole-4-carboxamide] | 1000 to 10000 | – | –
Fc1cccc(-n2ncc(-c3onc(-c4c(F)cccc4Cl)c3C(=S)N3CCOCC3)c2C(F)(F)F)c1 [Example I-129, (3-(2-chloro-6-fluorophenyl)-5-(1-(3-fluorophenyl)-5-(trifluoromethyl)-1H-pyrazol-4-yl)isoxazol-4-yl)(morpholino)meth-anethione] | 1000 to 10000 | – | –
CNC(=O)c1c(-c2ccccc2)noc1-c1cnn(-c2cc(F)cc(F)c2)c1C(F)(F)F [Example I-113, 5-(1-(3,5-difluorophenyl)-5-(trifluoromethyl)-1H-pyrazol-4-yl)-N-methyl-3-phenylisoxazole-4-carboxamide] | 1000 to 10000 | 1000 to 10000 | –
CCOC(=O)c1c(-c2c(Cl)cncc2Cl)noc1-c1cnn(-c2cccc(F)c2)c1C(F)(F)F [IB-103, ethyl 3-(3,5-dichloropyridin-4-yl)-5-(1-(3-fluorophenyl)-5-(trifluoromethyl)-1H-pyrazol-4-yl)isoxazole-4-carboxylate] | 1000 to 10000 | 1000 to 10000 | –
O=C(c1c(-c2c(F)cccc2Cl)noc1-c1cnn(-c2ccccc2F)c1C(F)(F)F)N1CCCC1 [Example I-22, (3-(2-chloro-6-fluorophenyl)-5-(1-(2-fluorophenyl)-5-(trifluoromethyl)-1H-pyrazol-4-yl)isoxazol-4-yl)(pyrrolidin-1-yl)methanone] | 100 to 1000 | 100 to 1000 | –
CCOC(=O)c1csc(-n2ncc(-c3onc(-c4c(F)cccc4Cl)c3C(=O)OC)c2C(F)(F)F)n1 [Example I-53, methyl 3-(2-chloro-6-fluorophenyl)-5-(1-(4-(ethoxycarbonyl)thiazol-2-yl)-5-(trifluoromethyl)-1H-pyrazol-4-yl)isoxazole-4-carboxylate] | 1000 to 10000 | 1000 to 10000 | –
COC(=O)c1sccc1-n1ncc(-c2onc(-c3c(F)cccc3Cl)c2C(=O)OC)c1C(F)(F)F [Example I-14, methyl 3-(2-chloro-6-fluorophenyl)-5-(1-(2-(methoxycarbonyl)thiophen-3-yl)-5-(trifluoromethyl)-1H-pyrazol-4-yl)isoxazole-4-carboxylate] | 10 to 100 | 100 to 1000 | –
CNC(=O)c1c(-c2ccccc2F)noc1-c1cnn(-c2cccc(F)c2)c1C(F)(F)F [Example I-93, 3-(2-fluorophenyl)-5-(1-(3-fluorophenyl)-5-(trifluoromethyl)-1H-pyrazol-4-yl)-N-methylisoxazole-4-carboxamide] | 1000 to 10000 | – | –
COC(=O)c1c(-c2c(F)cccc2Cl)noc1-c1cnn(-c2ccc([N+](=O)[O-])cc2)c1C(F)(F)F [Example I-69, methyl 3-(2-chloro-6-fluorophenyl)-5-(1-(4-nitrophenyl)-5-(trifluoromethyl)-1H-pyrazol-4-yl)isoxazole-4-carboxylate] | 1000 to 10000 | 1000 to 10000 | –
CCOC(=O)c1c(-c2ccc(Cl)cc2)noc1-c1cnn(-c2ccc(F)cc2)c1C(F)(F)F [Example I-78, ethyl 3-(4-chlorophenyl)-5-(1-(4-fluorophenyl)-5-(trifluoromethyl)-1H-pyrazol-4-yl)isoxazole-4-carboxylate] | 1000 to 10000 | – | –
CNC(=S)c1c(-c2c(F)cccc2Cl)noc1-c1cnn(-c2cccc(Cl)c2)c1C(F)(F)F [Example I-72, 3-(2-chloro-6-fluorophenyl)-5-(1-(3-chlorophenyl)-5-(trifluoromethyl)-1H-pyrazol-4-yl)-N-methylisoxazole-4-carbothioamide] | – | 100 to 1000 | 100 to 1000
CNC(=O)c1c(-c2ccc(Cl)c(Cl)c2)noc1-c1cnn(-c2cccc(F)c2)c1C(F)(F)F [Example I-98, 3-(3,4-dichlorophenyl)-5-(1-(3-fluorophenyl)-5-(trifluoromethyl)-1H-pyrazol-4-yl)-N-methylisoxazole-4-carboxamide] | 1000 to 10000 | – | –
Fc1ccccc1-n1ncc(-c2onc(-c3c(F)cccc3Cl)c2Br)c1C(F)(F)F [IB-26, 4-bromo-3-(2-chloro-6-fluorophenyl)-5-(1-(2-fluorophenyl)-5-(trifluoromethyl)-1H-pyrazol-4-yl)isoxazole] | – | 100 to 1000 | 1000 to 10000
